These results are taken from patent publication US20240391882A1 (Mirati Therapeutics, Inc., priority 2023, published 2024).

pIC50: −log10 of the molar value.

Test [1] relates to T47D (PI3Kα H1047R mutant) cells. Nature of the test: Cell viability (CellTiter-Glo 2.0) in T47D cells. The test is classed as cell-based. Particulars: Homo sapiens, T47D, 72 h, approximately 72 hours. An outline of the steps: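 IC50 values derive from four-parameter fits of CellTiter-Glo luminescence expressed as percent of vehicle control. Cells (T47D or SKBR3) were plated at 1000/well the day before dosing and incubated about 72 h at 37° C with a 10-point, 1:4 series starting at 10 μm.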
In general terms: Cellular ATP, detected with luciferase, serves as a proxy for viable cell number.

For test [2], the system named is SKBR3 (PI3Kα wild type) cells. As to the kind of experiment: Cell viability (CellTiter-Glo 2.0) in SKBR3 cells. In kind it is cell-based. To be noted: Homo sapiens, SK-BR-3; SKBR3 (PI3Kα wild type) cells, approximately 72 hours, CellTiter-Glo 2.0; read-out: SKBR3 (WT) Viability IC50. As to the method: This Example illustrates that representative compounds of the invention decrease the viability of cells.
The ability of a compound of Formula (I) to decrease the viability of cells was measured using CellTiter-Glo 2.0 (CTG) Luminescent Cell Viability Assay (#G9241) obtained from Promega (Madison, WI).
To prepare assay plates for viability assays, cells were trypsinized, resuspended in fresh media, and viable cells were counted utilizing trypan blue exclusion. T47D, SKBR3, or MKN1 cells were seeded at 1000 cells in 30 μl per well in a solid white flat bottom 384 cell culture plate (Perkin Elmer #6007680) and incubated at 37° C. overnight.
Assay day 1, cells were dosed using an Echo Liquid Handler (Beckman Coulter) with compounds at a 10 μm starting concentration and serially diluted (1:4) for a total of 10 concentrations. Cells were incubated for approximately 72 hours with the compounds (solubilized in DMSO) at 37° C. After 72 hours of treatment, cell plates were equilibrated to room temperature before adding 15 μl of CTG to each well, plates were then covered in aluminum foil to protect from light, incubated at room temperature for 30 minutes on a microtiter plate shaker, and luminescence readings were collected using a CLARIOstar microplate reader (BMG Labtech, Germany). Percent of vehicle control values were plotted as log(inhibitor) vs. response—Variable slope (four parameters) for curve fitting and IC50 values were determined using XLfit.

As usually defined, the pIC50 is the IC50 on a negative log10 scale, so that one unit is a factor of ten. Take `Cc1cc([C@@H](C)Nc2ccc(Cl)nc2C(=O)O)c2nc(N3CC4(COC4)C3)c(C#N)nc2c1` [Example 60, (R)-6-chloro-3-((1-(2-cyano-7-methyl-3-(2-oxa-6-azaspiro[3.3]heptan-6-yl)quinoxalin-5-yl)ethyl)amino)picolinic acid]: the negative-log IC50 (pIC50) in test [1] is 7.68; in test [2], under 5.00.

On to `Cc1cc([C@@H](C)Nc2ccc(Cl)nc2C(=O)O)c2nc(N3CCC(F)(F)[C@@H](C)C3)c(C#N)nc2c1` [Example 78B, 6-chloro-3-(((R)-1-(2-cyano-3-((S)-4,4-difluoro-3-methylpiperidin-1-yl)-7-methylquinoxalin-5-yl)ethyl)amino)picolinic acid], for which the pIC50 in test [1] is 7.07; in test [2], under 5.00.

On to `Cc1cc([C@@H](C)Nc2ccc(Cl)nc2C(=O)O)c2nc(NC3CC(F)(F)C3)c(C#N)nc2c1` [Example 77, (R)-6-chloro-3-((1-(2-cyano-3-((3,3-difluorocyclobutyl)amino)-7-methylquinoxalin-5-yl)ethyl)amino)picolinic acid], for which the pIC50 was 7.11 in test [1] and 5.06 in test [2].

On to `CO[C@H]1CCN(c2nc3c([C@@H](C)Nc4ccc(Cl)nc4C(=O)O)cc(C)cc3nc2C#N)C1` (single isomer, unassigned) [Example 110B], for which the pIC50 in test [1] was 7.02; in test [2], under 5.00.

Take `Cc1cc([C@@H](C)Nc2ccccc2C(=O)O)c2nc(N3CCC(F)(F)[C@@H](C)C3)c(C#N)nc2c1` [Example 79A, 2-(((R)-1-(2-cyano-3-((S)-4,4-difluoro-3-methylpiperidin-1-yl)-7-methylquinoxalin-5-yl)ethyl)amino)benzoic acid]: the values for the pIC50 in test [1] and in test [2] were 6.60 and under 5.00, respectively.

In the case of `Cc1cc([C@@H](C)Nc2ccc(Cl)nc2C(=O)O)c2nc(N3CCc4cc(F)ccc4C3)c(C#N)nc2c1` [Example 87, (R)-6-chloro-3-((1-(2-cyano-3-(6-fluoro-3,4-dihydroisoquinolin-2(1H)-yl)-7-methylquinoxalin-5-yl)ethyl)amino)picolinic acid], the pIC50 in test [1] was 7.05; in test [2], 5.03.

Regarding `Cc1cc([C@@H](C)Nc2ccc(Cl)nc2C(=O)O)c2nc(N3CC4CC3C(F)(F)C4)c(C#N)nc2c1` (single isomer, unassigned) [Example 11], the pIC50 in test [1] was 7.19; in test [2], under 5.00.

On to `Cc1cc([C@@H](C)Nc2ccccc2C(=O)O)c2nc(N3CC4(COC4)C3)c(C#N)nc2c1` [Example 59, (R)-2-((1-(2-cyano-7-methyl-3-(2-oxa-6-azaspiro[3.3]heptan-6-yl)quinoxalin-5-yl)ethyl)amino)benzoic acid], for which the pIC50 in test [1] was 6.85; in test [2] it was under 5.00.

For the compound `Cc1cc([C@@H](C)Nc2ccccc2C(=O)O)c2nc(N3CCC(F)(F)C3)c(C#N)nc2c1` [Example 71, (R)-2-((1-(2-cyano-3-(3,3-difluoropyrrolidin-1-yl)-7-methylquinoxalin-5-yl)ethyl)amino)benzoic acid], the pIC50 was 6.56 in test [1] and under 5.00 in test [2].

On to `CNC(=O)c1ccccc1N[C@H](C)c1cc(C)cc2nc(C#N)c(N3CCOCC3)nc12` [Example 856, (R)-2-((1-(2-cyano-7-methyl-3-morpholinoquinoxalin-5-yl)ethyl)amino)-N-methylbenzamide], for which the pIC50 was 5.46 in test [1] and 5.45 in test [2].

On to `Cc1cc([C@@H](C)Nc2ccccc2C(=O)O)c2nc(N3CCc4cc(C#N)ccc4C3)c(C#N)nc2c1` [Example 86, (R)-2-((1-(2-cyano-3-(6-cyano-3,4-dihydroisoquinolin-2(1H)-yl)-7-methylquinoxalin-5-yl)ethyl)amino)benzoic acid], for which the results for the pIC50 in test [1] and in test [2] were 6.57 and under 5.00, respectively.

`Cc1cc([C@@H](C)Nc2ccccc2C(=O)O)c2nc(N3CCc4ccccc4C3)c(C#N)nc2c1` [Example 84, (R)-2-((1-(2-cyano-3-(3,4-dihydroisoquinolin-2(1H)-yl)-7-methylquinoxalin-5-yl)ethyl)amino)benzoic acid]: the pIC50 in test [1] is 6.46; in test [2], under 5.00.

Take `Cc1cc([C@@H](C)Nc2ccc(Cl)nc2C(=O)O)c2nc(N3CCCC(F)(F)C3)c(C#N)nc2c1` [Example 12, (R)-6-chloro-3-((1-(2-cyano-3-(3,3-difluoropiperidin-1-yl)-7-methylquinoxalin-5-yl)ethyl)amino)picolinic acid]: the values for the pIC50 in test [1] and in test [2] were 6.80 and under 5.00, respectively.

Consider `Cc1cc([C@@H](C)Nc2ccccc2C#N)c2nc(N3CCOCC3)c(C#N)nc2c1` [Example 853, (R)-5-(1-((2-cyanophenyl)amino)ethyl)-7-methyl-3-morpholinoquinoxaline-2-carbonitrile], for which the values for the pIC50 in test [1] and in test [2] were 5.36 and under 5.00, respectively.

On to `Cc1cc([C@@H](C)Nc2ccccc2C(=O)O)c2nc(N3CCc4ccncc4C3)c(C#N)nc2c1` [Example 89, (R)-2-((1-(2-cyano-3-(3,4-dihydro-2,7-naphthyridin-2(1H)-yl)-7-methylquinoxalin-5-yl)ethyl)amino)benzoic acid], for which the pIC50 was 7.20 in test [1] and under 5.00 in test [2].

`Cc1cc([C@@H](C)Nc2ccccc2C(=O)O)c2nc(N3CCC(C)(C(F)(F)F)CC3)c(C#N)nc2c1` [Example 65, (R)-2-((1-(2-cyano-7-methyl-3-(4-methyl-4-(trifluoromethyl)piperidin-1-yl)quinoxalin-5-yl)ethyl)amino)benzoic acid]: the negative-log IC50 (pIC50) in test [1] is 6.34; in test [2], under 5.00.

As for `CO[C@@H]1CCN(c2nc3c([C@@H](C)Nc4ccccc4C(=O)O)cc(C)cc3nc2C#N)C1` (single isomer, unassigned) [Example 72B], the figures for the negative-log IC50 (pIC50) in test [1] and in test [2] were 7.02 and under 5.00, respectively.

Take `CO[C@@H]1CCN(c2nc3c([C@@H](C)Nc4ccc(Cl)nc4C(=O)O)cc(C)cc3nc2C#N)C1` (single isomer, unassigned) [Example 110A]: the pIC50 in test [1] was 6.53; in test [2], under 5.00.

Turning to `Cc1cc([C@@H](C)Nc2ccc(Cl)nc2C#N)c2nc(N3CCOCC3)c(C#N)nc2c1` [Example 855, (R)-5-(1-((6-chloro-2-cyanopyridin-3-yl)amino)ethyl)-7-methyl-3-morpholinoquinoxaline-2-carbonitrile], the pIC50 in test [1] was 5.97; in test [2], 5.16.

Take `Cc1cc([C@@H](C)Nc2ccc(Cl)nc2C(=O)O)c2nc(NCC3(C(F)(F)F)CC3)c(C#N)nc2c1` [Example 15, (R)-6-chloro-3-((1-(2-cyano-7-methyl-3-(((1-(trifluoromethyl)cyclopropyl)methyl)amino)quinoxalin-5-yl)ethyl)amino)picolinic acid]: the pIC50 in test [1] is 6.92; in test [2], under 5.00.

With `Cc1cc([C@@H](C)Nc2scnc2C(=O)O)c2nc(N3CCC(F)(F)CC3)c(C#N)nc2c1` [Example 39, (R)-5-((1-(2-cyano-3-(4,4-difluoropiperidin-1-yl)-7-methylquinoxalin-5-yl)ethyl)amino)thiazole-4-carboxylic acid], the figures for the pIC50 in test [1] and in test [2] were 5.57 and 5.21, respectively.

Turning to `Cc1cc([C@@H](C)Nc2ccccc2C(=O)O)c2nc(N3CCc4cc(F)ccc4C3)c(C#N)nc2c1` [Example 88, (R)-2-((1-(2-cyano-3-(6-fluoro-3,4-dihydroisoquinolin-2(1H)-yl)-7-methylquinoxalin-5-yl)ethyl)amino)benzoic acid], the figures for the pIC50 in test [1] and in test [2] were 6.44 and under 5.00, respectively.
